# Laboratory results as given in paper PMC12057336 (Antimicrobial Agents and Chemotherapy, 2025).
# Columns and labels:
# [1] = target: human OATP1B3 (Homo sapiens, UniProt Q9NPD5); details: 5 µM; 10 min; 37°C; vs mock cells
# Procedure: (§1) OATP1B1-, OATP1B3-, OATP2B1-, NTCP-, OAT1-, and OAT3-transfected HEK293 cells were cultured in DMEM supplemented with 10% FBS, 100 U/mL penicillin-streptomycin at 37°C with 95% relative humidity atmosphere containing 5% CO2. All cells were seeded in 24-well plates at a density of 4 × 10^5 cells/well and cultured for 1–2 days until they reached 80%–90% confluence. Prior to the initiation of uptake studies, the cells were washed twice with HBSS buffer at 37°C. Membrane vesicles were stored at −80°C and thawed at 37°C prior to the initiation of the studies.
# (§2) All uptake tests were performed in triplicates. The activities of transporter-transfected HEK293 cells were evaluated using relevant positive substrates and inhibitors. E17G (5 µM, OATP1B1 and OATP1B3), ES (2 µM, OATP2B1), ES (5 µM, OAT3), TCA (10 µM, NTCP), and PAH (20 µM, OAT1) were used as substrates of the transporters. The inhibitors for each transporter were rifampicin (200 µM, OATP1B1 and OATP1B3), erlotinib (10 µM, OATP2B1), CsA (20 µM, NTCP), and probenecid (200 µM, OAT1 and OAT3).
# (§3) The cells were washed three times with ice-cold HBSS buffer. […] The total protein concentration was measured using a BCA Protein Assay Kit. The uptake rates of HEK293-OATP1B1, HEK293-OATP1B3, HEK293-OATP2B1, HEK293-NTCP, HEK293-OAT1, HEK293-OAT3, and mock cells were calculated. […]
# [2] = target: human OATP1B1 (Homo sapiens, UniProt Q9Y6L6); details: 5 µM; 10 min; 37°C; vs mock cells
# Procedure: as §1, §2, §3
# [3] = system: OATP2B1; details: cited from earlier work
# [4] = system: MATE2-K; details: cited from earlier work
# [5] = Pharmacokinetics (plasma, urine) of linezolid and metabolites after i.g. or i.v. linezolid in control, CCl4-induced and 5/6 Nx rats; details: for AUC(0-inf): AUC0-∞
# Excerpt: The control group rats were intraperitoneally injected with equal volumes of soybean oil. […] The upper and lower poles of the left kidney were removed under urethane anesthesia (1 g/kg; administered by i.p. injection). One week later, the right kidney was completely excised. Rats in the control group underwent a sham operation ([35]). Serum creatinine (CREA), blood urea nitrogen (BUN), aspartate aminotransferase (AST), alanine aminotransferase (ALT), alkaline phosphatase (ALP), lactate dehydrogenase (LDH), and total bilirubin (TBIL) levels were measured using commercial kits (Shanghai Enzyme-linked Biotechnology Co., Ltd., Shanghai, China) according to the protocols described by the manufacturer before pharmacokinetic experiments.
# The rats were first divided into two groups: i.v. or i.g. administration groups. These two groups were further divided into the following four subgroups (n = 5): soybean oil-treated control rats, CCl4-induced rats, sham-operated control rats, and 5/6 Nx rats. […] Blood samples (200 µL) were collected from the retro-orbital venous plexus into heparinized tubes at 0 (pre-dose), 0.25, 0.5, 0.75, 1, 2, 3, 4, 6, 8, 12, and 24 h after i.g. administration, and at 0 (pre-dose), 0.083, 0.25, 0.5, 0.75, 1, 2, 3, 4, 6, 8, 12, and 24 h after i.v. administration. Plasma samples were separated by centrifugation at 6,000 × g for 5 min at 4°C and stored at −80°C until further analysis using HPLC.
# Chromatographic separation was performed using the SinoPak BEH T-C18 column (4.6 mm × 150 mm, 5 µm, Hi-tech Zone, China) at 35°C. A photodiode array detector was set at a wavelength of 254 nm. The mobile phase consisted of 0.1% (vol/vol) formic acid in water (A) and acetonitrile (B). The gradient conditions were as follows: 0–4.0 min, 14%–86% B; 4.0–5.0 min, […]; 5.0–5.7 min, return to 14% B; 5.7–8.0 min, equilibrium. The flow rate was 1.0 mL/min.
# Plasma and tissue homogenate samples (100 µL) were mixed with 10 µL of IS (50.0 mg/L) and 200 µL of acetonitrile, followed by vortex-mixing for 3 min. The mixture was centrifuged at 15,000 × g for 15 min at 4°C. Then, 5 µL of the supernatant was analyzed. The urine samples were diluted and directly injected for measurement.
# The area under the plasma concentration-time curve from 0 to infinity (AUC0-∞), time to maximum concentration (tmax), Cmax, t1/2, CL, and Vd were calculated by non-compartmental model analysis using the Phoenix 8.1.0 WinNonlin software (Pharsight Corp, Princeton, NJ, USA). The renal clearance (CLr), in vitro hepatic clearance (CLint, in vitro), and bioavailability (F) were calculated using the following equations:
# F (%) = Div×AUC0−∞, ig/Dig×AUC0−∞, iv
# Atotal is the total cumulative amount excreted in urine over 24 h. D is the administered dose. The scale factor is 4,680 (10^6 cells/kg). All data are expressed as mean ± standard deviation (SD). Statistical analysis was performed using Student’s two-tailed unpaired t-test or nonparametric Mann-Whitney U test with SPSS Statistics 19.0 (SPSS Inc., Chicago, IL, USA). Statistical significance was set at P < 0.05.
# [6] = system: OATP1B3; details: cited from earlier work
# [7] = Sprague-Dawley, rat, in vivo, iv
# [8] = Sprague-Dawley, rat, in vivo, po, 63 mg/kg
# human OATP1B1, sequence (Q9Y6L6 whole entry): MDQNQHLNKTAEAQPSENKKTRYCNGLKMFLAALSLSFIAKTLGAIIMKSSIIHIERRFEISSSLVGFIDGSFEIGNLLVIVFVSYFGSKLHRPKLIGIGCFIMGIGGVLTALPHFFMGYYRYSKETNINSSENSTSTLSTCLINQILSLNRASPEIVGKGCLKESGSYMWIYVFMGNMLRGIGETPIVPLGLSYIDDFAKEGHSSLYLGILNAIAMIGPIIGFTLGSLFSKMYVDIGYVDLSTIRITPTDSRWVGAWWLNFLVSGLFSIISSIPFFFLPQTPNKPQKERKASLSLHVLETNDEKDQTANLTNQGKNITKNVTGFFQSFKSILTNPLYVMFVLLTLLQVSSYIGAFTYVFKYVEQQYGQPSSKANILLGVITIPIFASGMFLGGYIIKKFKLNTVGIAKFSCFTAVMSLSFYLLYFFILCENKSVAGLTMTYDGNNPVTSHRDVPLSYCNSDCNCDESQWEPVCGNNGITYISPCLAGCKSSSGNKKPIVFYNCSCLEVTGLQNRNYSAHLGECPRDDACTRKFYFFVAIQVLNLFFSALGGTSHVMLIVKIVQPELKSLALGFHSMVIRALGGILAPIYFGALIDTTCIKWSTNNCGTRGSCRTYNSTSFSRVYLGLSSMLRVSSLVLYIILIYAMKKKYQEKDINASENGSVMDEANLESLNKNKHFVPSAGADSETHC
# human OATP1B3, sequence (Q9NPD5 whole entry): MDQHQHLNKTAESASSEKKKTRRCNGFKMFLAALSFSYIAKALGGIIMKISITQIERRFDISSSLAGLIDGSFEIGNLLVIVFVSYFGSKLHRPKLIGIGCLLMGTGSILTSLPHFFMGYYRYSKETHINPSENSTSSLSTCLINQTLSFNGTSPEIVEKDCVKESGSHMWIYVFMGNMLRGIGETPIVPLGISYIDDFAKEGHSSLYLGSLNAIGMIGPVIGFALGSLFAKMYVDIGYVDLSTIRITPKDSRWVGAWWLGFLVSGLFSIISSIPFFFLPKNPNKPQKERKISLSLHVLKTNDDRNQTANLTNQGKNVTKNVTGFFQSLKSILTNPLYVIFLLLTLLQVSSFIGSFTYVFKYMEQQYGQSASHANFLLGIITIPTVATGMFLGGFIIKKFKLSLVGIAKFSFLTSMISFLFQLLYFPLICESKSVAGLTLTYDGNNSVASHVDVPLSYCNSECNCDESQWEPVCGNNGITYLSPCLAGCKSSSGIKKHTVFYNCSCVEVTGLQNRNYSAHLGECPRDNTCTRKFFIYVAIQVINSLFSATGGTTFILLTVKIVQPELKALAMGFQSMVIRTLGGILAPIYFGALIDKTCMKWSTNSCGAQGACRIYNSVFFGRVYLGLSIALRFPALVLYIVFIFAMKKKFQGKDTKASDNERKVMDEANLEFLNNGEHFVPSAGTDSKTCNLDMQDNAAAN
smiles,measurement,setting,value
CC(=O)NC[C@H]1CN(c2ccc(N3CCOCC3)c(F)c2)C(=O)O1 [Linezolid],substrate for OATP1B3,[1],not a substrate
same,substrate for OATP1B1,[2],not a substrate
same,inhibitor of OATP2B1,[3],inhibitor
same,inhibitor of MATE2-K,[4],not an inhibitor
same,change of cumulative urinary excretion rate,"[5]; 5/6 Nx rats vs control, P < 0.05",significantly decreased
same,change of cumulative urinary excretion rate,[5]; CCl4-induced rats,no significant changes
same,decrease of CLr in comparison to sham-operated control rats,"[5]; Sprague-Dawley, rat, in vivo",50.0%
same,decrease of CL in comparison to soybean oil-treated control rats,[5]; [7],27.0%
same,decrease of CLr in comparison to sham-operated control rats,[5]; [7],66.7%
same,AUC(0-inf),"[5]; Sprague-Dawley, rat, in vivo, iv, 25 mg/kg",69.3 ± 8.67 µg·h/mL
same,clearance,"[5]; Sprague-Dawley, rat, in vivo, iv, 25 mg/kg, CL",6.17 mL/min/kg
same,Vd,"[5]; Sprague-Dawley, rat, in vivo, iv, 25 mg/kg, Vd",0.63 ± 0.05 L/kg
same,decrease of CL in comparison to soybean oil-treated control rats,"[5]; Sprague-Dawley, rat, in vivo, po",13.8%
same,Tmax,[5]; [8],0.9 ± 0.14 h
same,tmax,[5]; [8],1.0 h
same,AUC(0-inf),[5]; [8],220 ± 27.6 µg·h/mL
same,CL renal,"[5]; Sprague-Dawley, rat, in vivo, po, 63 mg/kg, CLr",0.333 mL/min/kg
same,Cmax,"[5]; Sprague-Dawley, rat, in vivo, po, 63 mg/kg, Cmax",35300 ± 1100 ng/mL
same,half-life,"[5]; Sprague-Dawley, rat, in vivo, po, 63 mg/kg, t1/2",1.84 ± 0.27 h
same,inhibitor of OATP1B3,[6],inhibitor
